Values after ≈ are worked out from the molar mass of the structure shown.
Experiments:
[1] = system: Staphylococcus haemolyticus; assay: Antimicrobial activity against oxacillin-resistant Staphylococcus haemolyticus clinical isolates by broth microdilution method; format: functional
Staphylococcus aureus [2] = assay: Antimicrobial activity against Staphylococcus aureus clinical isolates assessed as resistant isolates by broth microdilution method; format: functional
[3] = Antimicrobial activity against erythromycin-nonsusceptible Streptococcus Group G clinical isolates by broth microdilution method; format: functional; settings: Streptococcus sp. 'group G'
Streptococcus agalactiae [4] = assay: Antimicrobial activity against erythromycin-susceptible Streptococcus agalactiae clinical isolates assessed as resistant isolates by broth microdilution method; format: functional
[5] = system: Staphylococcus epidermidis; assay: Antimicrobial activity against oxacillin-susceptible Staphylococcus epidermidis clinical isolates assessed as resistant isolates by broth microdilution method; format: functional
Streptococcus pneumoniae [6] = assay: Antimicrobial activity against Streptococcus pneumoniae clinical isolates assessed as percent susceptible isolates by broth microdilution method; format: functional
Streptococcus pyogenes [7] = assay: Antimicrobial activity against erythromycin-nonsusceptible Streptococcus pyogenes clinical isolates assessed as percent susceptible isolates by broth microdilution method; format: functional
[8] = Antimicrobial activity against erythromycin-susceptible Streptococcus Group C clinical isolates assessed as percent susceptible isolates by broth microdilution method; format: functional, Streptococcus sp. 'group C'
Streptococcus [9] = assay: Antimicrobial activity against erythromycin-susceptible Streptococcus Group F clinical isolates by broth microdilution method; format: functional
Streptococcus [10] = assay: Antimicrobial activity against Streptococcus Group F clinical isolates by broth microdilution method; format: functional
Streptococcus pneumoniae [11] = assay: Antimicrobial activity against penicillin-resistant Streptococcus pneumoniae clinical isolates assessed as percent susceptible isolates by broth microdilution method; format: functional
Streptococcus pneumoniae [12] = assay: Antimicrobial activity against Streptococcus pneumoniae clinical isolates by broth microdilution method; format: functional
Streptococcus pneumoniae [13] = assay: Antimicrobial activity against penicillin-resistant Streptococcus pneumoniae clinical isolates by broth microdilution method; format: functional
Streptococcus pneumoniae [14] = assay: Antimicrobial activity against penicillin-susceptible Streptococcus pneumoniae clinical isolates assessed as percent susceptible isolates by broth microdilution method; format: functional
Streptococcus agalactiae [15] = assay: Antimicrobial activity against erythromycin-susceptible Streptococcus agalactiae clinical isolates by broth microdilution method; format: functional
Streptococcus pyogenes [16] = assay: Antimicrobial activity against erythromycin-susceptible Streptococcus pyogenes clinical isolates assessed as percent susceptible isolates by broth microdilution method; format: functional
[17] = Antimicrobial activity against erythromycin-susceptible Streptococcus Group G clinical isolates by broth microdilution method; format: functional; settings: Streptococcus sp. 'group G'
Streptococcus pneumoniae [18] = assay: Antimicrobial activity against penicillin-susceptible Streptococcus pneumoniae clinical isolates by broth microdilution method; format: functional
Streptococcus agalactiae [19] = assay: Antimicrobial activity against erythromycin-nonsusceptible Streptococcus agalactiae clinical isolates assessed as resistant isolates by broth microdilution method; format: functional
Streptococcus pneumoniae [20] = assay: Antimicrobial activity against penicillin-intermediate Streptococcus pneumoniae clinical isolates assessed as resistant isolates by broth microdilution method; format: functional
[21] = Antimicrobial activity against erythromycin-nonsusceptible Streptococcus Group C clinical isolates assessed as percent susceptible isolates by broth microdilution method; format: functional, Streptococcus sp. 'group C'
Streptococcus agalactiae [22] = assay: Antimicrobial activity against erythromycin-susceptible Streptococcus agalactiae clinical isolates assessed as percent susceptible isolates by broth microdilution method; format: functional
[23] = system: Staphylococcus haemolyticus; assay: Antimicrobial activity against Staphylococcus haemolyticus clinical isolates assessed as percent susceptible isolates by broth microdilution method; format: functional
Streptococcus agalactiae [24] = assay: Antimicrobial activity against Streptococcus agalactiae clinical isolates assessed as resistant isolates by broth microdilution method; format: functional
Streptococcus [25] = assay: Antimicrobial activity against erythromycin-nonsusceptible Streptococcus Group F clinical isolates by broth microdilution method; format: functional
[26] = Antimicrobial activity against Streptococcus Group C clinical isolates by broth microdilution method; format: functional; settings: Streptococcus sp. 'group C'
Streptococcus pyogenes [27] = assay: Antimicrobial activity against erythromycin-nonsusceptible Streptococcus pyogenes clinical isolates by broth microdilution method; format: functional
Streptococcus agalactiae [28] = assay: Antimicrobial activity against erythromycin-nonsusceptible Streptococcus agalactiae clinical isolates assessed as percent susceptible isolates by broth microdilution method; format: functional
[29] = Antimicrobial activity against erythromycin-susceptible Streptococcus Group G clinical isolates assessed as resistant isolates by broth microdilution method; format: functional, Streptococcus sp. 'group G'
[30] = Antimicrobial activity against erythromycin-susceptible Streptococcus Group C clinical isolates by broth microdilution method; format: functional; settings: Streptococcus sp. 'group C'
[31] = Antimicrobial activity against erythromycin-nonsusceptible Streptococcus Group C clinical isolates by broth microdilution method; format: functional; settings: Streptococcus sp. 'group C'
Streptococcus pneumoniae [32] = assay: Antimicrobial activity against penicillin-intermediate Streptococcus pneumoniae clinical isolates by broth microdilution method; format: functional
Streptococcus pyogenes [33] = assay: Antimicrobial activity against Streptococcus pyogenes clinical isolates by broth microdilution method; format: functional
Streptococcus agalactiae [34] = assay: Antimicrobial activity against Streptococcus agalactiae clinical isolates by broth microdilution method; format: functional
Staphylococcus aureus [35] = assay: Antimicrobial activity against Staphylococcus aureus clinical isolates by broth microdilution method; format: functional
Streptococcus agalactiae [36] = assay: Antimicrobial activity against Streptococcus agalactiae clinical isolates assessed as percent susceptible isolates by broth microdilution method; format: functional
Streptococcus pyogenes [37] = assay: Antimicrobial activity against erythromycin-susceptible Streptococcus pyogenes clinical isolates by broth microdilution method; format: functional
[38] = Antimicrobial activity against erythromycin-susceptible Streptococcus Group G clinical isolates assessed as percent susceptible isolates by broth microdilution method; format: functional, Streptococcus sp. 'group G'
[39] = Antimicrobial activity against Streptococcus Group G clinical isolates by broth microdilution method; format: functional; settings: Streptococcus sp. 'group G'
Streptococcus pneumoniae [40] = assay: Antimicrobial activity against penicillin-intermediate Streptococcus pneumoniae clinical isolates assessed as percent susceptible isolates by broth microdilution method; format: functional
Streptococcus pyogenes [41] = assay: Antimicrobial activity against Streptococcus pyogenes clinical isolates assessed as resistant isolates by broth microdilution method; format: functional
Streptococcus pyogenes [42] = assay: Antimicrobial activity against Streptococcus pyogenes clinical isolates assessed as percent susceptible isolates by broth microdilution method; format: functional
[43] = Antimicrobial activity against Streptococcus Group C clinical isolates assessed as resistant isolates by broth microdilution method; format: functional, Streptococcus sp. 'group C'
Streptococcus pyogenes [44] = assay: Antimicrobial activity against erythromycin-susceptible Streptococcus pyogenes clinical isolates assessed as resistant isolates by broth microdilution method; format: functional
Staphylococcus aureus [45] = assay: Antimicrobial activity against oxacillin-susceptible Staphylococcus aureus clinical isolates assessed as resistant isolates by broth microdilution method; format: functional
[46] = system: Staphylococcus haemolyticus; assay: Antimicrobial activity against oxacillin-resistant Staphylococcus haemolyticus clinical isolates assessed as resistant isolates by broth microdilution method; format: functional
Streptococcus agalactiae [47] = assay: Antimicrobial activity against erythromycin-nonsusceptible Streptococcus agalactiae clinical isolates by broth microdilution method; format: functional
[48] = system: Staphylococcus epidermidis; assay: Antimicrobial activity against oxacillin-resistant Staphylococcus epidermidis clinical isolates assessed as resistant isolates by broth microdilution method; format: functional
[49] = system: Staphylococcus epidermidis; assay: Antimicrobial activity against oxacillin-susceptible Staphylococcus epidermidis clinical isolates by broth microdilution method; format: functional

SMILES: CCC[C@@H]1C[C@@H](C(=O)N[C@@H]([C@H]2O[C@H](SC)[C@H](O)[C@@H](O)[C@H]2O)[C@H](C)Cl)N(C)C1 [CLINDAMYCIN]
- MIC90 [1]: > 4 µg/mL
- Percent resistant isolates (Staphylococcus aureus [2]): 24.1%
- MIC90 [3]: > 1 µg/mL
- Activity (Streptococcus agalactiae [4]): 1%
- Percent of isolates resistant [5]: 11%
- Activity (Streptococcus pneumoniae [6]): 86.9%
- Activity (Streptococcus pyogenes [7]): 71%
- Activity [8]: 100%
- MIC90 (Streptococcus [9]): 0.06 µg/mL (≈ 0.141 µM)
- MIC90 (Streptococcus [10]): 0.06 µg/mL (≈ 0.141 µM)
- Activity (Streptococcus pneumoniae [11]): 45.3%
- MIC90 (Streptococcus pneumoniae [12]): > 1 µg/mL
- MIC (Streptococcus pneumoniae [13]): > 0.03 µg/mL
- Activity (Streptococcus pneumoniae [14]): 97.2%
- MIC90 (Streptococcus agalactiae [15]): 0.06 µg/mL (≈ 0.141 µM)
- Activity (Streptococcus pyogenes [16]): 100%
- MIC90 [17]: 0.06 µg/mL (≈ 0.141 µM)
- MIC90 (Streptococcus pneumoniae [18]): 0.06 µg/mL (≈ 0.141 µM)
- Activity (Streptococcus agalactiae [19]): 57.4%
- Percent of isolates resistant (Streptococcus pneumoniae [20]): 15.3%
- Activity [21]: 82.4%
- Activity (Streptococcus agalactiae [22]): 99%
- Activity [23]: 70.3%
- Activity (Streptococcus agalactiae [24]): 17.6%
- MIC90 (Streptococcus [25]): > 1 µg/mL
- MIC90 [26]: 0.06 µg/mL (≈ 0.141 µM)
- MIC90 (Streptococcus pyogenes [27]): > 1 µg/mL
- Activity (Streptococcus agalactiae [28]): 41%
- Activity [29]: 0%
- MIC90 [30]: 0.06 µg/mL (≈ 0.141 µM)
- MIC90 [31]: > 1 µg/mL
- MIC90 (Streptococcus pneumoniae [32]): > 1 µg/mL
- MIC90 (Streptococcus pyogenes [33]): 0.06 µg/mL (≈ 0.141 µM)
- MIC90 (Streptococcus agalactiae [34]): > 1 µg/mL
- MIC90 (Staphylococcus aureus [35]): > 4 µg/mL
- Activity (Streptococcus agalactiae [36]): 81.9%
- MIC90 (Streptococcus pyogenes [37]): 0.06 µg/mL (≈ 0.141 µM)
- Activity [38]: 100%
- MIC90 [39]: 0.06 µg/mL (≈ 0.141 µM)
- Activity (Streptococcus pneumoniae [40]): 84.7%
- Activity (Streptococcus pyogenes [41]): 3.9%
- Activity (Streptococcus pyogenes [42]): 96%
- Activity [43]: 3.6%
- Activity (Streptococcus pyogenes [44]): 0%
- Percent of isolates resistant (Staphylococcus aureus [45]): 8%
- Activity [46]: 37.1%
- MIC90 (Streptococcus agalactiae [47]): > 1 µg/mL
- Percent of isolates resistant [48]: 43.3%
- MIC90 [49]: > 2 µg/mL

Source: ChEMBL document CHEMBL1649268, “Comparative in vitro activity profile of oritavancin against recent gram-positive clinical isolates” (2009)
